Measurements from the NIST ThermoML archive (doi:10.1016/j.jct.2014.06.005).

Assays:
[1] = Ring tensiometer
[2] = xn = mol fraction of the nth substance listed; conditions: Ring tensiometer

CC(C)(C)O [2-methylpropan-2-ol]
[1]
Conditions	surface tension liquid-gas [mN/m]
298.15 K	19.96
308.15 K	19.26
318.15 K	18.35
328.15 K	17.62

CC(C)(C)O [2-methylpropan-2-ol] + C[S+](C)[O-]
surface tension liquid-gas [mN/m], [2]
Conditions	298.15 K	308.15 K	318.15 K	328.15 K
x1 = 0.0183	39.25	38.29	37.56	36.51
x1 = 0.0361	36.85	36.01	35.32	34.28
x1 = 0.0695	34.2	33.39	32.73	31.66
x1 = 0.1008	32.36	31.54	30.78	29.89
x1 = 0.1301	31.04	30.17	29.53	28.54
x1 = 0.1832	29.19	28.35	27.71	26.83
x1 = 0.2302	28.08	27.23	26.53	25.71
x1 = 0.3096	26.31	25.51	24.96	24.17
x1 = 0.4022	24.98	24.21	23.69	22.86
x1 = 0.4928	23.72	23.02	22.37	21.63
x1 = 0.5736	22.87	22.01	21.36	20.63
x1 = 0.6322	22.19	21.4	20.85	20.06
x1 = 0.6767	21.72	21.02	20.47	19.71
x1 = 0.7115	21.51	20.85	20.18	19.38
x1 = 0.8511	20.64	19.92	19.03	18.26
x1 = 1	19.96	19.26	18.35	17.62

CC(C)CCO [3-methylbutan-1-ol]
[1]
Conditions	surface tension liquid-gas [mN/m]
298.15 K	22.83
308.15 K	22.02
318.15 K	21.3
328.15 K	20.49

CC(C)CCO [3-methylbutan-1-ol] + C[S+](C)[O-]
surface tension liquid-gas [mN/m], [2]
Conditions	298.15 K	308.15 K	318.15 K	328.15 K
x1 = 0.0033	41.6	40.66	39.65	38.38
x1 = 0.0065	40.98	40.12	39.19	37.83
x1 = 0.0129	40.07	39.09	38.42	37.08
x1 = 0.0255	38.5	37.78	37.05	35.84
x1 = 0.0377	37.32	36.8	35.85	34.87
x1 = 0.0783	34.25	33.78	32.99	32.37
x1 = 0.1307	31.96	31.49	30.9	30.18
x1 = 0.1774	30.51	30	29.39	28.79
x1 = 0.2572	28.72	28.06	27.39	26.8
x1 = 0.323	27.65	27.06	26.37	25.6
x1 = 0.378	26.87	26.28	25.59	24.91
x1 = 0.4456	26	25.48	24.78	23.98
x1 = 0.4999	25.54	24.81	24.06	23.39
x1 = 0.5578	25	24.23	23.51	22.81
x1 = 0.6036	24.54	23.78	22.99	22.19
x1 = 0.6491	24.14	23.36	22.7	21.82
x1 = 0.6851	23.81	23.11	22.46	21.51
x1 = 0.786	23.42	22.69	22.01	21.16
x1 = 0.8875	23.16	22.41	21.64	20.89
x1 = 0.9511	22.95	22.2	21.46	20.68
x1 = 1	22.83	22.02	21.3	20.49

C[S+](C)[O-] [dimethyl sulfoxide]
[1]
Conditions	surface tension liquid-gas [mN/m]
298.15 K	42.28
308.15 K	41.18
318.15 K	40.14
328.15 K	38.93

C[S+](C)[O-] [dimethyl sulfoxide] + CC(C)(C)O
[2], x2 = 0
Conditions	surface tension liquid-gas [mN/m]
298.15 K	42.28
308.15 K	41.18
318.15 K	40.14
328.15 K	38.93

C[S+](C)[O-] [dimethyl sulfoxide] + CC(C)CCO
[2], x2 = 0
Conditions	surface tension liquid-gas [mN/m]
298.15 K	42.28
308.15 K	41.18
318.15 K	40.14
328.15 K	38.93
